Results taken from ChEMBL document CHEMBL3272054, “Beta-adrenoceptor studies. 2. Effects of alkyl substitution on beta-adrenoceptor blocking, antiarrhythmic, and local anesthetic activities of 1,1'-(o-phenylenedioxy)bis(3-isopropylamino-2-propanol)” (J Med Chem, 1977).
Activity calls are given as the source filed them. No cut-off for these calls is given here.

tested on: not listed separately; experiment: Apparent dissociation constant, pKa of the compound; assay type: physicochemical; details: not given

| SMILES | pKa |
| --- | --- |
| Cc1ccc(OCC(O)CNC(C)C)c(OCC(O)CNC(C)C)c1.Cl (stereo not drawn) | 9.24 |
| CC(C)NCC(O)COc1cc2ccccc2cc1OCC(O)CNC(C)C.Cl (stereo not drawn) | 9.18 |
| CC(C)NCC(O)COc1cccc(C(C)C)c1OCC(O)CNC(C)C.Cl (stereo not drawn) | 9.24 |

The next lines start with the values.

| pKa | SMILES |
| --- | --- |
| 9.22 | CC(C)NCC(O)COc1ccccc1OCC(O)CNC(C)C (stereo not drawn) |
| 9.23 | Cc1cccc(OCC(O)CNC(C)C)c1OCC(O)CNC(C)C.Cl (stereo not drawn) |
| 9.3 | CC(C)NCC(O)COc1ccc(C(C)C)cc1OCC(O)CNC(C)C.Cl (stereo not drawn) |
| 9.17 | CC(C)NCC(O)COc1cc2c(cc1OCC(O)CNC(C)C)CCCC2 (stereo not drawn) |

tested on: not listed separately; experiment: Local anesthetic activity in desheathed frog sciatic nerve; assay type: functional, tissue-based, Anura; details: not given

| SMILES | pEC50 |
| --- | --- |
| Cc1ccc(OCC(O)CNC(C)C)c(OCC(O)CNC(C)C)c1.Cl (stereo not drawn) | 1.69 |
| CC(C)NCC(O)COc1cc2ccccc2cc1OCC(O)CNC(C)C.Cl (stereo not drawn) | 2.2 |
| CC(C)NCC(O)COc1cccc(C(C)C)c1OCC(O)CNC(C)C.Cl (stereo not drawn) | 2 |

Next, values leading:

| pEC50 | SMILES |
| --- | --- |
| 1.29 | CC(C)NCC(O)COc1ccccc1OCC(O)CNC(C)C (stereo not drawn) |
| 1.8 | Cc1cccc(OCC(O)CNC(C)C)c1OCC(O)CNC(C)C.Cl (stereo not drawn) |
| 2.07 | CC(C)NCC(O)COc1ccc(C(C)C)cc1OCC(O)CNC(C)C.Cl (stereo not drawn) |
| 2.02 | CC(C)NCC(O)COc1cc2c(cc1OCC(O)CNC(C)C)CCCC2 (stereo not drawn) |

molecular target: Beta-2 adrenergic receptor (Cavia porcellus, UniProt Q8K4Z4); experiment: Antagonist activity at beta-2 adrenergic receptor in guinea pig tracheal strip assessed as inhibition of isoprenaline-induced effect; details: read-out: pA2 (converted)
Sequence (Q8K4Z4 whole entry): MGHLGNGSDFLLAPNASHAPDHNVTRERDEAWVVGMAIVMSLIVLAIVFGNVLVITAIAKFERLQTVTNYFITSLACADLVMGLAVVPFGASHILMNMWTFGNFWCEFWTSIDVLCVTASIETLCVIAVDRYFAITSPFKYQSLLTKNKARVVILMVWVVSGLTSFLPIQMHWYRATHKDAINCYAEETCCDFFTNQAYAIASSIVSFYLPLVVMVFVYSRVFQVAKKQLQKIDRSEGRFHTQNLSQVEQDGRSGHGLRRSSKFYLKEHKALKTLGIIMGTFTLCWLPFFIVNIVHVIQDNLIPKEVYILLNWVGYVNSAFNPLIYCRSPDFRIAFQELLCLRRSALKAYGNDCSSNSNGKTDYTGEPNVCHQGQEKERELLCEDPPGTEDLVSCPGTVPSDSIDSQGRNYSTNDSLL

| Kb [nM] | SMILES |
| --- | --- |
| 158 | CC(C)NCC(O)COc1cc2ccccc2cc1OCC(O)CNC(C)C.Cl (stereo not drawn) |
| 129 | CC(C)NCC(O)COc1cc2c(cc1OCC(O)CNC(C)C)CCCC2 (stereo not drawn) |

molecular target: Beta-1 adrenergic receptor (Cavia porcellus, UniProt H0W3H1); experiment: Antagonist activity at […] adrenergic receptor in guinea pig right atrium assessed as inhibition of isoprenaline-induced effect; set-up: species or system Cardiac atrium; details: not given
Sequence (H0W3H1 1-470): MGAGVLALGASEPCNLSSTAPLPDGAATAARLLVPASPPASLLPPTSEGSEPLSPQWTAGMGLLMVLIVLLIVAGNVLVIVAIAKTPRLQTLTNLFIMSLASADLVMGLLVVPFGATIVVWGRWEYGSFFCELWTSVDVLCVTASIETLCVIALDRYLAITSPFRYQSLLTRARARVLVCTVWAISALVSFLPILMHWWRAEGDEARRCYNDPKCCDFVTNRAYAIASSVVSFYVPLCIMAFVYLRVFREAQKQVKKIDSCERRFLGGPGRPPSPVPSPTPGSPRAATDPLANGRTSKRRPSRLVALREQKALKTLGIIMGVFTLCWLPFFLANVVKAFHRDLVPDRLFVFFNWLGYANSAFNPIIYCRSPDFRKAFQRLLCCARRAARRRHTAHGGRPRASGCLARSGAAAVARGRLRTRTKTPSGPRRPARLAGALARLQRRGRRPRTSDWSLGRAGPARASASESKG

| pA2 | SMILES |
| --- | --- |
| 5.45 | CC(C)NCC(O)COc1cc2ccccc2cc1OCC(O)CNC(C)C.Cl (stereo not drawn) |
| 5.83 | CC(C)NCC(O)COc1cc2c(cc1OCC(O)CNC(C)C)CCCC2 (stereo not drawn) |

tested on: not listed separately; experiment: 1-octanol-phosphate buffer apparent partition coefficient, log P of the compound at pH 7.4; assay type: physicochemical; details: not given

| SMILES | logD |
| --- | --- |
| Cc1ccc(OCC(O)CNC(C)C)c(OCC(O)CNC(C)C)c1.Cl (stereo not drawn) | -1.16 |
| CC(C)NCC(O)COc1cc2ccccc2cc1OCC(O)CNC(C)C.Cl (stereo not drawn) | -0.81 |
| CC(C)NCC(O)COc1cccc(C(C)C)c1OCC(O)CNC(C)C.Cl (stereo not drawn) | -0.747 |

Second part, the molecule after the results:

| logD | SMILES |
| --- | --- |
| -1.19 | CC(C)NCC(O)COc1ccccc1OCC(O)CNC(C)C (stereo not drawn) |
| -1.17 | Cc1cccc(OCC(O)CNC(C)C)c1OCC(O)CNC(C)C.Cl (stereo not drawn) |
| -0.833 | CC(C)NCC(O)COc1ccc(C(C)C)cc1OCC(O)CNC(C)C.Cl (stereo not drawn) |
| -0.726 | CC(C)NCC(O)COc1cc2c(cc1OCC(O)CNC(C)C)CCCC2 (stereo not drawn) |

tested on: Right cardiac atrium; experiment: Negative chronotropic activity in guinea pig right atrium assessed as atrial rate at MEC after 30 mins; assay type: functional, tissue-based; details: Cavia porcellus

| SMILES | Activity |
| --- | --- |
| CC(C)NCC(O)COc1cccc2ccccc12 (stereo not drawn) | Active |
| CC(C)NCC(O)COc1ccccc1OCC(O)CNC(C)C (stereo not drawn) | Active |
| Cc1cccc(OCC(O)CNC(C)C)c1OCC(O)CNC(C)C.Cl (stereo not drawn) | Active |
| CC(C)NCC(O)COc1ccc(C(C)C)cc1OCC(O)CNC(C)C.Cl (stereo not drawn) | Active |
| Cc1ccc(OCC(O)CNC(C)C)c(OCC(O)CNC(C)C)c1.Cl (stereo not drawn) | Active |
| CC(C)NCC(O)COc1cc2ccccc2cc1OCC(O)CNC(C)C.Cl (stereo not drawn) | Active |
| CC(C)NCC(O)COc1cccc(C(C)C)c1OCC(O)CNC(C)C.Cl (stereo not drawn) | Active |
| CC(C)NCC(O)COc1cc2c(cc1OCC(O)CNC(C)C)CCCC2 (stereo not drawn) | Active |

tested on: Right cardiac atrium; experiment: Antiarrhythmic activity in guinea pig right atrium assessed as inhibition of ouabain-induced arrhythmia; assay type: functional, Cavia porcellus; details: not given

| SMILES | -logMIC |
| --- | --- |
| CC(C)NCC(O)COc1ccccc1OCC(O)CNC(C)C (stereo not drawn) | 3.7 |
| Cc1cccc(OCC(O)CNC(C)C)c1OCC(O)CNC(C)C.Cl (stereo not drawn) | 4.7 |
| CC(C)NCC(O)COc1ccc(C(C)C)cc1OCC(O)CNC(C)C.Cl (stereo not drawn) | 4.7 |
| Cc1ccc(OCC(O)CNC(C)C)c(OCC(O)CNC(C)C)c1.Cl (stereo not drawn) | 4.3 |
| CC(C)NCC(O)COc1cc2ccccc2cc1OCC(O)CNC(C)C.Cl (stereo not drawn) | 5.3 |
| CC(C)NCC(O)COc1cccc(C(C)C)c1OCC(O)CNC(C)C.Cl (stereo not drawn) | 5 |
| CC(C)NCC(O)COc1cc2c(cc1OCC(O)CNC(C)C)CCCC2 (stereo not drawn) | 5 |

tested on: Right cardiac atrium; experiment: Negative inotropic activity in guinea pig right atrium assessed as contractile force at MEC after 30 mins; assay type: functional, tissue-based; details: Cavia porcellus

| SMILES | Activity |
| --- | --- |
| CC(C)NCC(O)COc1cccc2ccccc12 (stereo not drawn) | Active |
| CC(C)NCC(O)COc1ccccc1OCC(O)CNC(C)C (stereo not drawn) | Active |
| Cc1cccc(OCC(O)CNC(C)C)c1OCC(O)CNC(C)C.Cl (stereo not drawn) | Active |
| CC(C)NCC(O)COc1ccc(C(C)C)cc1OCC(O)CNC(C)C.Cl (stereo not drawn) | Active |
| Cc1ccc(OCC(O)CNC(C)C)c(OCC(O)CNC(C)C)c1.Cl (stereo not drawn) | Active |
| CC(C)NCC(O)COc1cc2ccccc2cc1OCC(O)CNC(C)C.Cl (stereo not drawn) | Active |
| CC(C)NCC(O)COc1cccc(C(C)C)c1OCC(O)CNC(C)C.Cl (stereo not drawn) | Active |
| CC(C)NCC(O)COc1cc2c(cc1OCC(O)CNC(C)C)CCCC2 (stereo not drawn) | Active |
